Assay results taken from patent US12240854B2, “TRAF 6 inhibitors” (Helmholtz Zentrum München - Deutsches Forschungszentrum für …, priority 2018, dated 2025).

Tested on: TRAF6 auto-ubiquitination in MEF cells
Assay: Immunoprecipitation of TRAF6 for endogenous ubiquitination, MEF cells
Assay type: cell-based, mouse
Procedure: 2.5×10^6 MEF cells were seeded, treated with compound for 6 hours and stimulated with IL-1β (3.5 ng/mL) for 10 minutes. Cells were lysed in Co-IP lysis buffer containing 1% SDS to eliminate all cellular interactions. After cell lysis and removal of input samples, the samples were diluted to 0.1% SDS and incubated with 5 μL TRAF6 antibody EP591Y (Abcam) and immunoprecipitated with Protein-G-Sepharose beads. After washing of the beads in Co-IP wash buffer, TRAF6 protein was eluted and levels of TRAF6 ubiquitination were detected by Western Blot analysis.

Cc1nn(-c2ccc3nnc(C)n3n2)c(C)c1CCC(=O)N1CCC(Cc2ccccc2)CC1 [Example C25-140, 1-(4-Benzylpiperidin-1-yl)-3-(3,5-dimethyl-1-(3-methyl-[1,2,4]-triazolo-[4,3-b]-pyridazin-6-yl)-1H-pyrazol-4-yl)-propan-1-one]
IL-1β-induced auto-ubiquitination of TRAF6: reduced TRAF6 auto-ubiquitination
